Assays:
[1] = tested on: S. pneumoniae ATCC 700905; assay: microdilution assay MIC, S. pneumoniae ATCC 700905; assay type: cell-based, Streptococcus pneumoniae; details: S. pneumoniae ATCC 700905, erythromycin A resistant strain; average where multiple assays
Experimental: (§1) In Table B, in some instances multiple assays were performed for a compound/strain combination, in which case the reported MIC is the average. S. pneumoniae ATCC 6301, ATCC 700671, and ATCC 49619 and S. aureus ATCC 6538p and ATCC 29213 are erythromycin sensitive strains.

S. aureus ATCC 29213 = assay: microdilution assay MIC, S. aureus ATCC 29213; assay type: cell-based, Staphylococcus aureus; details: S. aureus ATCC 29213, erythromycin sensitive strain; average where multiple assays
Experimental: as §1

[2] = tested on: S. pneumoniae ATCC 700676; assay: microdilution assay MIC, S. pneumoniae ATCC 700676; assay type: cell-based, Streptococcus pneumoniae; details: S. pneumoniae ATCC 700676, erythromycin A resistant strain; average where multiple assays
Experimental: as §1

[3] = tested on: S. epidermidis ATCC 12228; assay: microdilution assay MIC, S. epidermidis ATCC 12228; assay type: cell-based, Staphylococcus epidermidis; details: average where multiple assays
Experimental: as §1

S. pneumoniae ATCC 6301 = assay: microdilution assay MIC, S. pneumoniae ATCC 6301; assay type: cell-based, Streptococcus pneumoniae; details: S. pneumoniae ATCC 6301, erythromycin sensitive strain; average where multiple assays
Experimental: as §1

[4] = tested on: S. pneumoniae ATCC 700671; assay: microdilution assay MIC, S. pneumoniae ATCC 700671; assay type: cell-based, Streptococcus pneumoniae; details: S. pneumoniae ATCC 700671, erythromycin sensitive strain; average where multiple assays
Experimental: as §1

[5] = tested on: S. pneumoniae ATCC 700677; assay: microdilution assay MIC, S. pneumoniae ATCC 700677; assay type: cell-based, Streptococcus pneumoniae; details: S. pneumoniae ATCC 700677, erythromycin A resistant strain; average where multiple assays
Experimental: as §1

S. aureus ATCC 6538p = assay: microdilution assay MIC, S. aureus ATCC 6538p; assay type: cell-based, Staphylococcus aureus; details: erythromycin sensitive strain, average where multiple assays
Experimental: as §1

E. faecalis ATCC 51575 = assay: microdilution assay MIC, E. faecalis ATCC 51575; assay type: cell-based, Enterococcus faecalis; details: average where multiple assays
Experimental: (§2) In Table B, in some instances multiple assays were performed for a compound/strain combination, in which case the reported MIC is the average.

S. aureus ATCC 14154 = assay: microdilution assay MIC, S. aureus ATCC 14154; assay type: cell-based, Staphylococcus aureus; details: S. aureus ATCC 14154, erythromycin A resistant strain; average where multiple assays
Experimental: as §2

S. pneumoniae ATCC 49619 = assay: microdilution assay MIC, S. pneumoniae ATCC 49619; assay type: cell-based, Streptococcus pneumoniae; details: S. pneumoniae ATCC 49619, erythromycin sensitive strain; average where multiple assays
Experimental: as §1

[6] = tested on: S. pneumoniae ATCC 700906; assay: microdilution assay MIC, S. pneumoniae ATCC 700906; assay type: cell-based, Streptococcus pneumoniae; details: S. pneumoniae ATCC 700906, erythromycin A resistant strain; average where multiple assays
Experimental: as §2

H. influenzae ATCC 9006 = assay: microdilution assay MIC, H. influenzae ATCC 9006; assay type: cell-based, Haemophilus influenzae; details: average where multiple assays
Experimental: as §1

H. influenzae ATCC 49766 = assay: microdilution assay MIC, H. influenzae ATCC 49766; assay type: cell-based, Haemophilus influenzae; details: average where multiple assays
Experimental: as §1

| SMILES | MIC [1] [µg/mL] | MIC (S. aureus ATCC 29213) [µg/mL] | MIC [2] [µg/mL] | MIC [3] [µg/mL] | MIC (S. pneumoniae ATCC 6301) [µg/mL] | MIC [4] [µg/mL] | MIC [5] [µg/mL] | MIC (S. aureus ATCC 6538p) [µg/mL] | MIC (E. faecalis ATCC 51575) [µg/mL] | MIC (S. aureus ATCC 14154) [µg/mL] | MIC (S. pneumoniae ATCC 49619) [µg/mL] | MIC [6] [µg/mL] | MIC (H. influenzae ATCC 9006) [µg/mL] | MIC (H. influenzae ATCC 49766) [µg/mL] |
| --- | --- | --- | --- | --- | --- | --- | --- | --- | --- | --- | --- | --- | --- | --- |
| CCN(C)CCC1OC(=O)C(C)C(=O)C(C)C(OC2OC(C)CC(N(C)C)C2O)C(C)(OC)CC(C)C(=O)C(C)C2NC(=O)OC12C (stereo not drawn) [Compound 101] | 3.12 | 6.25 | 6.25 | 6.25 | 0.2 | 0.39 | >12.5 | 6.25 | 6.25 | 6.25 | 0.78 | >12.5 | – | – |
| COC1(C)CC(C)C(=O)C(C)C2NC(=O)OC2(C)C(CCN2CCCCC2)OC(=O)C(C)C(=O)C(C)C1OC1OC(C)CC(N(C)C)C1O (stereo not drawn) [Compound 102] | 0.098 | – | 0.78 | – | 0.098 | 3.12 | >12.5 | – | – | – | 0.2 | >12.5 | 3.12 | 6.25 |
| COC1(C)CC(C)C(=O)C(C)C2NC(=O)OC2(C)C(CCN(C)CCc2cccc(-c3ccco3)c2)OC(=O)C(C)C(=O)C(C)C1OC1OC(C)CC(N(C)C)C1O (stereo not drawn) [Compound 103] | 0.049 | 0.39 | 0.049 | 0.049 | 0.049 | 0.049 | 0.098 | 0.098 | 12.5 | 0.39 | 0.049 | >12.5 | >12.5 | >12.5 |
| COC1(C)CC(C)C(=O)C(C)C2NC(=O)OC2(C)C(CCN(Cc2cccc(-c3ccco3)c2)Cc2cccc(-c3ccco3)c2)OC(=O)C(C)C(=O)C(C)C1OC1OC(C)CC(N(C)C)C1O (stereo not drawn) [Compound 104] | >12.5 | 6.25 | 6.25 | 6.25 | 3.12 | 3.12 | 6.25 | >12.5 | 12.5 | 6.25 | >12.5 | >12.5 | >12.5 | >12.5 |
| COC1(C)CC(C)C(=O)C(C)C2NC(=O)OC2(C)C(CCNC(=O)Oc2cccc(-c3cccnc3)c2)OC(=O)C(C)C(=O)C(C)C1OC1OC(C)CC(N(C)C)C1O (stereo not drawn) [Compound 109] | 0.025 | – | 0.025 | – | 0.025 | 0.025 | 0.025 | – | – | – | 0.025 | 0.025 | 1.56 | 1.56 |
| COC1(C)CC(C)C(=O)C(C)C2NC(=O)OC2(C)C(CCNC(=O)Oc2cccc(-c3ccncc3)c2)OC(=O)C(C)C(=O)C(C)C1OC1OC(C)CC(N(C)C)C1O (stereo not drawn) [Compound 110] | 0.025 | – | 0.025 | – | 0.025 | 0.025 | 0.025 | – | – | – | 0.025 | 0.049 | 1.56 | 3.12 |
| COC1(C)CC(C)C(=O)C(C)C2NC(=O)OC2(C)C(CCNC(=O)Oc2cccc(-c3ccccc3)c2)OC(=O)C(C)C(=O)C(C)C1OC1OC(C)CC(N(C)C)C1O (stereo not drawn) [Compound 111] | 0.025 | – | 0.025 | – | 0.025 | 0.025 | 0.025 | – | – | – | 0.049 | 0.025 | 1.56 | 1.56 |
| COC1(C)CC(C)C(=O)C(C)C2NC(=O)OC2(C)C(CCNC(=O)Oc2ccc(-c3ccccc3)cc2)OC(=O)C(C)C(=O)C(C)C1OC1OC(C)CC(N(C)C)C1O (stereo not drawn) [Compound 112] | 0.025 | – | 0.025 | – | 0.025 | 0.025 | 0.78 | – | – | – | 0.049 | 0.049 | 3.12 | 6.25 |
| COC1(C)CC(C)C(=O)C(C)C2NC(=O)OC2(C)C(CCNC(=O)Oc2ccc3ccccc3c2)OC(=O)C(C)C(=O)C(C)C1OC1OC(C)CC(N(C)C)C1O (stereo not drawn) [Compound 113] | 0.025 | – | 0.025 | – | 0.025 | 0.025 | 0.025 | – | – | – | 0.025 | 0.025 | 1.56 | 1.56 |
| COC1(C)CC(C)C(=O)C(C)C2NC(=O)OC2(C)C(CCNC(=O)Oc2cccc3ccccc23)OC(=O)C(C)C(=O)C(C)C1OC1OC(C)CC(N(C)C)C1O (stereo not drawn) [Compound 114] | 0.025 | – | 0.098 | – | 0.025 | 0.025 | 0.049 | 0.025 | – | 0.025 | 0.049 | 6.25 | – | 3.12 |
| COC1(C)CC(C)C(=O)C(C)C2NC(=O)OC2(C)C(CCNC(=O)OCC2c3ccccc3-c3ccccc32)OC(=O)C(C)C(=O)C(C)C1OC1OC(C)CC(N(C)C)C1O (stereo not drawn) [Compound 115] | 0.025 | – | 0.025 | – | 0.025 | 0.025 | 0.025 | – | – | – | 0.025 | 0.025 | 0.78 | 1.56 |
| COC1(C)CC(C)C(=O)C(C)C2NC(=O)OC2(C)C(CCNC(=O)Oc2ccc(F)cc2)OC(=O)C(C)C(=O)C(C)C1OC1OC(C)CC(N(C)C)C1O (stereo not drawn) [Compound 116] | 0.025 | – | 0.025 | – | 0.025 | 0.025 | 0.39 | – | – | – | 0.049 | 0.098 | 3.12 | 6.25 |
| COC1(C)CC(C)C(=O)C(C)C2NC(=O)OC2(C)C(CCNC(=O)OCC(C)C)OC(=O)C(C)C(=O)C(C)C1OC1OC(C)CC(N(C)C)C1O (stereo not drawn) [Compound 117] | 0.025 | – | 0.025 | – | 0.025 | 0.098 | >12.5 | – | – | – | 0.025 | >12.5 | 6.25 | 6.25 |
| COC(=O)NCCC1OC(=O)C(C)C(=O)C(C)C(OC2OC(C)CC(N(C)C)C2O)C(C)(OC)CC(C)C(=O)C(C)C2NC(=O)OC12C (stereo not drawn) [Compound 118] | 0.98 | – | 0.098 | – | 0.025 | 0.049 | 0.39 | 0.49 | – | 0.39 | 0.049 | >12.5 | 6.25 | 3.12 |
| COC1(C)CC(C)C(=O)C(C)C2NC(=O)OC2(C)C(CCNC(=O)Nc2cccc3ccccc23)OC(=O)C(C)C(=O)C(C)C1OC1OC(C)CC(N(C)C)C1O (stereo not drawn) [Compound 119] | 0.025 | – | 0.049 | – | 0.025 | 0.049 | 0.78 | – | – | – | 0.025 | 0.098 | 6.25 | 3.12 |
| CC[C@H]1OC(=O)[C@H](C)[C@@H](O[C@H]2C[C@@](C)(OC)[C@@H](O)[C@H](C)O2)[C@H](C)[C@@H](O[C@@H]2O[C@H](C)C[C@H](N(C)C)[C@H]2O)[C@](C)(O)C[C@@H](C)C(=O)[C@H](C)[C@@H](O)[C@]1(C)O [Ery A, erythromycin A, reference compound] | 3.12 | 0.20 | 6.25 | 0.20 | 0.025 | 0.049 | 6.25 | 0.098 | – | – | 0.049 | – | 1.56 | 6.25 |

Reference: US8063021B2, “Ketolide anti-infective compounds” (Kosan Biosciences Incorporated, priority 2003, dated 2011)
